# Data: US12213479B2, “Monoterpenoid/phenylpropanoid-containing compounds and methods of their making and use as herbicides” (KITTRICH CORPORATION, priority 2016, dated 2025)
# Legend:
# [1] = tested on: Cocklebur (Xanthium spp.); test: Toxicity assay (probit LC50), cocklebur; assay type: in vivo
# From the text: (§1) Cocklebur burs were obtained from the Department of Agronomy at Iowa State University. Individual seeds were sown for each pot (1.5″ wide×3″ deep) with approximately 7.5 g of soil for each plot. One bur/plot was sown into numerous plots. After one month of germination, germinated plants were counted in each plot and this number was used for the total number of plants challenged per plot in the toxicity assessment.
# (§2) The total number of plants were counted in each plot in 24×6 hexagonal small plot planter tray. The number of germinated seeds in each plot was enumerated after one month, and for each plot this number was recorded and used as the total for each plot. Differing concentrations of thymyloxyacetic acid was applied in 5% Triton-X 100 and 1:1 molar ratio potassium hydroxide:thymyloxyacetic acid to aid in the solubility of the compound in water. Ten mL of solution was applied to each plot, and the mortality of the plants was assessed at 3 days and 2 weeks post application (for some treatments). Mortality at these time points were enumerated out of the total plants germinated in each plot at the beginning of the assay. At both time points, the total number of dead plants and total number of plants at the beginning of the assay were recorded for each observation. A Probit model was used to calculate the LC50 values for each of the compounds explored in this assay. A formulation control (with no active ingredient) was screened against a number of plants and factored into the final probit model. This formulation control had little-to-no effect by itself.
# [2] = tested on: various dicot weed species; test: Selectivity assessment, dicot weed species compared to bluegrass; assay type: in vivo; details: range over various weed species
# From the text: as §1, with “Kentucky bluegrass seeds” for “Cocklebur burs”, “purchased in a bag under” for “obtained from”, “commercial name of.” for “Department of Agronomy at Iowa State University.”, “10 seeds/plot” for “One bur/plot”
# as §2, with “A formulation control (with no active ingredient) was screened against a number of plants and factored into the final probit model. This formulation control had little-to-no effect by itself.” left out
smiles,measurement,setting,value
"Cc1ccc(C(C)C)c(OCC(=O)O)c1 [thymyloxyacetic acid, 2-(2-isopropyl-5-methylphenoxy)acetic acid]",LC50 Value,[1]; Cocklebur,1530 ppm
same,Selective Toxicity Compared to Bluegrass,[1]; Cocklebur compared to bluegrass,2.29
same,selectivity ratio compared to a blue grass species,[2],2.06-5 fold
